# ChEMBL document CHEMBL1201862, “PubChem BioAssay data set” (2004)
#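 The compound was tested at five concentrations on cells cultured in 96-well plates, with a 48-hour exposure period. Here, GI50 denotes the concentration required for 50% inhibition of growth.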 Active and inactive are the calls of the source. Cut-off read from the data, not from the text of the source: active = GI50 up to about 1.1 µM and inactive = higher.
# Experiments:
# Assay in all cases: growth of human tumour cells (NCI), 48 h
# SW-620 = system: SW-620
# SNB-78 = system: SNB-78
# CCRF-CEM = system: CCRF-CEM
# NCI-H23 = system: NCI-H23
# NCI-H226 = system: NCI-H226
# COLO 205 = system: COLO 205
# DMS-114 = system: DMS-114
# UACC-257 = system: UACC-257
# OVCAR-3 = system: OVCAR-3
# M19-MEL = system: M19-MEL
# SK-MEL-28 = system: SK-MEL-28
# DLD-1 = system: DLD-1
# HL-60 = system: HL-60
# LOX IMVI = system: LOX IMVI
# SF-268 = system: SF-268
# ACHN = system: ACHN
# HCT-116 = system: HCT-116
# A498 = system: A498
# K562 = system: K562
# TK-10 = system: TK-10
# Malme-3M = system: Malme-3M
# RXF 393 = system: RXF 393
# SN12C = system: SN12C
# HOP-62 = system: HOP-62
# SK-OV-3 = system: SK-OV-3
# OVCAR-8 = system: OVCAR-8
# OVCAR-5 = system: OVCAR-5
# LXFL 529 = system: LXFL 529
# 786-0 = system: 786-0
# UACC-62 = system: UACC-62
# SF-295 = system: SF-295
# U-251 = system: U-251
# HOP-92 = system: HOP-92
# NCI-H522 = system: NCI-H522
# SK-MEL-2 = system: SK-MEL-2
# HT-29 = system: HT-29
# HOP-18 = system: HOP-18
# SNB-75 = system: SNB-75
# EKVX = system: EKVX
# HCT-15 = system: HCT-15
# MOLT-4 = system: MOLT-4
# A549 = system: A549
# NCI-H460 = system: NCI-H460
# KM12 = system: KM12
# KM-20L2 = system: KM-20L2
# XF498 = system: XF498
# RPMI-8226 = system: RPMI-8226
# DMS-273 = system: DMS-273
# SF-539 = system: SF-539
# IGROV-1 = system: IGROV-1
# SK-MEL-5 = system: SK-MEL-5
# UO-31 = system: UO-31
# CAKI-1 = system: CAKI-1
# OVCAR-4 = system: OVCAR-4
# M14 = system: M14
# MDA-MB-231 = system: MDA-MB-231
# MDA-MB-435 = system: MDA-MB-435
# Hs-578T = system: Hs-578T
# PC-3 = system: PC-3
# DU-145 = system: DU-145
# MDA-N = system: MDA-N
# HCC 2998 = system: HCC 2998
# BT-549 = system: BT-549
# SNB-19 = system: SNB-19
# MCF7 = system: MCF7
# NCI/ADR-RES = system: NCI/ADR-RES
# SR = system: SR
# T47D = system: T47D
structure (smiles),measurement,setting,value
c1ccc2c(CNCCCCCCCCNCc3cccc4ccccc34)cccc2c1,GI50,SW-620,1.8 µM (inactive)
same,GI50,SNB-78,2.24 µM (inactive)
same,GI50,CCRF-CEM,1.85 µM (inactive)
same,GI50,NCI-H23,3.4 µM (inactive)
same,GI50,NCI-H226,11.7 µM (inactive)
same,GI50,COLO 205,1.96 µM (inactive)
same,GI50,DMS-114,1.91 µM (inactive)
same,GI50,UACC-257,1.87 µM (inactive)
same,GI50,OVCAR-3,10.6 µM (inactive)
same,GI50,M19-MEL,1.73 µM (inactive)
same,GI50,SK-MEL-28,1.9 µM (inactive)
same,GI50,DLD-1,2.11 µM (inactive)
same,GI50,HL-60,1.86 µM (inactive)
same,GI50,LOX IMVI,1.23 µM (inactive)
same,GI50,SF-268,7.52 µM (inactive)
same,GI50,ACHN,2.9 µM (inactive)
same,GI50,HCT-116,1.67 µM (inactive)
same,GI50,A498,14.7 µM (inactive)
same,GI50,K562,0.679 µM (active)
same,GI50,TK-10,1.66 µM (inactive)
same,GI50,Malme-3M,1.95 µM (inactive)
same,GI50,RXF 393,1.74 µM (inactive)
same,GI50,SN12C,6.43 µM (inactive)
same,GI50,HOP-62,16.4 µM (inactive)
same,GI50,SK-OV-3,17.1 µM (inactive)
same,GI50,OVCAR-8,1.86 µM (inactive)
same,GI50,OVCAR-5,2 µM (inactive)
same,GI50,LXFL 529,1.82 µM (inactive)
same,GI50,786-0,1.73 µM (inactive)
same,GI50,UACC-62,1.8 µM (inactive)
same,GI50,SF-295,1.88 µM (inactive)
same,GI50,U-251,1.72 µM (inactive)
same,GI50,HOP-92,2.49 µM (inactive)
same,GI50,NCI-H522,1.79 µM (inactive)
same,GI50,SK-MEL-2,1.65 µM (inactive)
same,GI50,HT-29,1.8 µM (inactive)
same,GI50,HOP-18,5.41 µM (inactive)
same,GI50,SNB-75,1.9 µM (inactive)
same,GI50,EKVX,6.03 µM (inactive)
same,GI50,HCT-15,1.73 µM
same,GI50,MOLT-4,2.02 µM (inactive)
same,GI50,A549,2.2 µM (inactive)
same,GI50,NCI-H460,1.48 µM (inactive)
same,GI50,KM12,1.82 µM (inactive)
same,GI50,KM-20L2,1.75 µM (inactive)
same,GI50,XF498,1.79 µM (inactive)
same,GI50,RPMI-8226,1.67 µM (inactive)
same,GI50,DMS-273,2.01 µM (inactive)
same,GI50,SF-539,1.63 µM (inactive)
same,GI50,IGROV-1,4.55 µM (inactive)
same,GI50,SK-MEL-5,1.85 µM (inactive)
same,GI50,UO-31,1.87 µM (inactive)
same,GI50,CAKI-1,1.98 µM (inactive)
same,GI50,OVCAR-4,2.3 µM (inactive)
same,GI50,M14,1.75 µM (inactive)
CC(CN1CC(=O)NC(=O)C1)N1CC(=O)NC(=O)C1 (configuration not stated) [RAZOXANE],GI50,MDA-MB-231,171 µM (inactive)
same,GI50,MDA-MB-435,485 µM (inactive)
same,GI50,SW-620,54.7 µM (inactive)
same,GI50,SNB-78,449 µM (inactive)
same,GI50,CCRF-CEM,35.5 µM (inactive)
same,GI50,NCI-H23,213 µM (inactive)
same,GI50,NCI-H226,68.1 µM (inactive)
same,GI50,COLO 205,22.5 µM (inactive)
same,GI50,DMS-114,67.9 µM (inactive)
same,GI50,UACC-257,535 µM (inactive)
same,GI50,OVCAR-3,356 µM (inactive)
same,GI50,M19-MEL,299 µM (inactive)
same,GI50,Hs-578T,72.3 µM (inactive)
same,GI50,SK-MEL-28,522 µM (inactive)
same,GI50,PC-3,66.1 µM (inactive)
same,GI50,DLD-1,245 µM (inactive)
same,GI50,HL-60,53.1 µM (inactive)
same,GI50,LOX IMVI,212 µM (inactive)
same,GI50,SF-268,299 µM (inactive)
same,GI50,ACHN,242 µM (inactive)
same,GI50,HCT-116,104 µM (inactive)
same,GI50,A498,157 µM (inactive)
same,GI50,K562,188 µM (inactive)
same,GI50,TK-10,168 µM (inactive)
same,GI50,Malme-3M,52.2 µM (inactive)
same,GI50,RXF 393,473 µM (inactive)
same,GI50,SN12C,112 µM (inactive)
same,GI50,HOP-62,54.7 µM (inactive)
same,GI50,SK-OV-3,299 µM (inactive)
same,GI50,OVCAR-8,460 µM (inactive)
same,GI50,OVCAR-5,343 µM (inactive)
same,GI50,DU-145,160 µM (inactive)
same,GI50,786-0,98.9 µM (inactive)
same,GI50,UACC-62,340 µM (inactive)
same,GI50,MDA-N,182 µM (inactive)
same,GI50,SF-295,127 µM (inactive)
same,GI50,U-251,201 µM (inactive)
same,GI50,HCC 2998,339 µM (inactive)
same,GI50,HOP-92,211 µM (inactive)
same,GI50,NCI-H522,90.8 µM (inactive)
same,GI50,BT-549,385 µM (inactive)
same,GI50,SK-MEL-2,399 µM (inactive)
same,GI50,SNB-19,313 µM (inactive)
same,GI50,HT-29,119 µM (inactive)
same,GI50,HOP-18,277 µM (inactive)
same,GI50,SNB-75,306 µM (inactive)
same,GI50,EKVX,209 µM (inactive)
same,GI50,HCT-15,100 µM
same,GI50,MOLT-4,34.9 µM (inactive)
same,GI50,A549,32.9 µM (inactive)
same,GI50,NCI-H460,11.1 µM (inactive)
same,GI50,KM12,398 µM (inactive)
same,GI50,KM-20L2,174 µM (inactive)
same,GI50,XF498,234 µM (inactive)
same,GI50,MCF7,33.2 µM (inactive)
same,GI50,RPMI-8226,254 µM (inactive)
same,GI50,DMS-273,513 µM (inactive)
same,GI50,SF-539,332 µM (inactive)
same,GI50,IGROV-1,289 µM (inactive)
same,GI50,SK-MEL-5,198 µM (inactive)
same,GI50,UO-31,349 µM (inactive)
same,GI50,CAKI-1,109 µM (inactive)
same,GI50,OVCAR-4,283 µM (inactive)
same,GI50,NCI/ADR-RES,243 µM (inactive)
same,GI50,M14,217 µM (inactive)
same,GI50,SR,155 µM (inactive)
same,GI50,T47D,231 µM (inactive)
